Measured values from article PMC11363738 (Journal of Enzyme Inhibition and Medicinal Chemistry, 2024).

Tests used:
[1] = tested on: SARS-CoV-2 Omicron virus BA.5; test: Antiviral activity in Vero E6 cells, preventive model (viral RNA by qRT-PCR); format: cell-based; details: Severe acute respiratory syndrome coronavirus 2, Vero C1008; read-out: EC50 (concentration for 50% reduction in viral infectivity), preventive model
[2] = tested on: SARS-CoV-2 Omicron virus BA.5; test: microbe, parasite or virus in culture; format: cell-based; details: for EC50: Severe acute respiratory syndrome coronavirus 2, Vero C1008, 96 h, ND = not detectable, inactive at 10 μM, mean ± SD, read-out: EC50, therapeutic model
[3] = tested on: SARS-CoV-2; set-up: method as in PMID 34131140; details: read-out: intracellular antiviral activity EC50; cited from earlier work
[4] = tested on: rats and mice; details: cited from earlier work
[5] = tested on: rats and mice; set-up: method as in PMID 12776572; details: cited from earlier work
[6] = tested on: rats and mice; set-up: method as in earlier work; details: cited from earlier work
[7] = Cytotoxicity against Vero E6 cells, CCK-8 assay (preventive model); details: African green monkey
[8] = Normal cytotoxicity test in Vero E6 cells, therapeutic model (Celltiter-Glo, CC plate); details: African green monkey, Vero E6 cells (uninfected)
[9] = molecular target: T1, SARS-CoV-2 3CL^pro (Severe acute respiratory syndrome coronavirus 2, UniProt P0DTD1); test: SARS-CoV-2 3CLpro FRET activity assay (Beyotime inhibitor screening kit); format: biochemical; details: for IC50: FRET assay, averages of three independent experiments; for inhibition at 1 µM: n = 3, read-out: rate of inhibiting SARS-CoV-2 3CL^pro
T1 construct: purchased Beyotime, China P0315M

[10] = in vitro; details: African green monkey
[11] = in vitro; details: African green monkey; remark: listed apart in the source

## O=C1c2c(O)cc(O)cc2O[C@H](c2cc(O)c(O)c(O)c2)[C@H]1O [Compound 1, Dihydromyricetin]
[1]
  EC50: 21.2 ± 0.62 µM
[2]
  inhibitory activity against Omicron virus, therapeutic model: did not have significant inhibitory activity
[3]
  EC50: 13.6 µM
[4]
  result in acute oral toxicity tests: negative
[5]
  result in long-term toxicity tests: negative
[6]
  result in genotoxicity tests: negative
[7]
  CC50 at 24 h: > 100 µM
[8]
  CC50 at 4 days: > 100 µM

## O=c1c(O)c(-c2cc(O)c(O)c(O)c2)oc2cc(O)cc(O)c12 [Compound 2, Myricetin]
[1]
  EC50: 12.2 ± 0.23 µM
[2]
  inhibitory activity against Omicron virus, therapeutic model: did not have significant inhibitory activity
[7]
  CC50 at 24 h: > 100 µM
[8]
  CC50 at 4 days: > 100 µM

## COC(=O)COc1cc(O)c2c(=O)c(O)c(-c3cc(O)c(O)c(O)c3)oc2c1 [Compound 3, Methyl 2-((3,5-dihydroxy-4-oxo-2–(3,4,5-trihydroxyphenyl)-4H-chromen-7yl)oxy)acetate]
[9]
  IC50: 0.72 ± 0.04 µM
  inhibition at 1 µM: > 50%
[1]
  EC50: 15.8 ± 0.92 µM
[10]
  CC50: > 100 µM
[11]
  CC50: > 100 µM

## COC(=O)CCCOc1cc(O)c2c(=O)c(O)c(-c3cc(O)c(O)c(O)c3)oc2c1 [Compound 4, Methyl4-((3,5-dihydroxy-4-oxo-2–(3,4,5-trihydroxyphenyl)-4H-chromen-7-yl)oxy)butano-ate]
[9]
  IC50: 1.26 ± 0.09 µM

## COC(=O)CCCCCOc1cc(O)c2c(=O)c(O)c(-c3cc(O)c(O)c(O)c3)oc2c1 [Compound 5, Methyl 6-((3,5-dihydroxy-4-oxo-2–(3,4,5-trihydroxyphenyl)-4H-chromen-7-yl)oxy) hexano-ate]
[9]
  IC50: 1.69 ± 0.16 µM
[1]
  EC50: 37.6 ± 2.05 µM
[10]
  CC50: > 100 µM
[11]
  CC50: > 100 µM

## CCOC(=O)COc1cc(O)c2c(=O)c(O)c(-c3cc(O)c(O)c(O)c3)oc2c1 [Compound 6, Ethyl 2-((3,5-dihydroxy-4-oxo-2–(3,4,5-trihydroxyphenyl)-4H-chromen-7-yl)oxy)acetate]
[9]
  IC50: 0.95 ± 0.12 µM
  inhibition at 1 µM: > 50%

## CCOC(=O)CCCOc1cc(O)c2c(=O)c(O)c(-c3cc(O)c(O)c(O)c3)oc2c1 [Compound 7, Ethyl 4-((3,5-dihydroxy-4-oxo-2–(3,4,5-trihydroxyphenyl)-4H-chromen-7-yl)oxy)butano-ate]
[9]
  IC50: 1.53 ± 0.14 µM

## CCOC(=O)CCCCCOc1cc(O)c2c(=O)c(O)c(-c3cc(O)c(O)c(O)c3)oc2c1 [Compound 8, Ethyl 6-((3,5-dihydroxy-4-oxo-2–(3,4,5-trihydroxyphenyl)-4H-chromen-7-yl)oxy)hexane-ate]
[9]
  IC50: 1.73 ± 0.11 µM

## CCOC(=O)CCCCCCOc1cc(O)c2c(=O)c(O)c(-c3cc(O)c(O)c(O)c3)oc2c1 [Compound 9, Ethyl 7-((3,5-dihydroxy-4-oxo-2–(3,4,5-trihydroxyphenyl)-4H-chromen-7-yl)oxy)heptano-ate]
[9]
  IC50: 1.68 ± 0.19 µM

## CCOC(=O)CCCCCCCOc1cc(O)c2c(=O)c(O)c(-c3cc(O)c(O)c(O)c3)oc2c1 [Compound 10, Ethyl 8-((3,5-dihydroxy-4-oxo-2–(3,4,5-trihydroxyphenyl)-4H-chromen-7-yl)oxy)octan-oate]
[9]
  IC50: 2.36 ± 0.13 µM
[1]
  EC50: 46.1 ± 4.67 µM
[2]
  EC50: 11.5 ± 3.68 µM

## CCC(CC)COC(=O)[C@H](C)N[P@](=O)(OC[C@H]1O[C@@](C#N)(c2ccc3c(N)ncnn23)[C@H](O)[C@@H]1O)Oc1ccccc1 [Remdesivir]
[1]
  EC50: 0.64 ± 0.12 µM
[2]
  EC50: 0.91 ± 0.39 µM
[7]
  CC50 at 24 h: > 100 µM
[8]
  CC50 at 4 days: 49.7 ± 0.13 µM
